Key:
[1] = tested on: NF-κB P65; test: NF-κB P65 in retinal nuclear extracts (ELISA); assay type: in vivo, Lewis rats; settings: AICAR pretreatment; 3 hours after LPS; n=9; PBS-treated EIU 27.3±11.0, control 8.3±8.6
Procedure: Male Lewis rats ranging from 6-8 weeks old (Charles River, Wilmington, Mass.) were used for these studies. To study the effects of AICAR pretreatment, AICAR and PBS (for placebo treatment) were delivered via intraperitoneal injection of AICAR (50 mg/kg or 100 mg/kg body weight; Sigma) diluted in 150 μl PBS or equal volume of PBS at 6 hours before and at the same time as LPS injection. Four experimental groups of rats were compared: (1) Normal: no treatment (2) AICAR: normal rats treated with AICAR 6 hours before examination; (3) LPS: EIU rats treated with PBS; (4) LPS+AICAR: EIU rats treated with AICAR. Two additional groups of rats were used to study the effects of AICAR (50 mg/kg) given either at the same time as LPS injection or at 6 hours after LPS injection. To investigate the LPS-induced signal transduction pathway, NF-κB P65 protein levels translocated into the nuclei of retinal cell extracts were examined 3 hours after LPS injection. For the measurement of NF-κB activity, pooled retinas from six normal rats, nine EIU PBS-treated rats, and nine EIU AICAR-treated rats were analyzed. […] The amount of NF-κB in the nuclear extracts was analyzed by measuring the p65 protein levels with a NF-κB detection kit (p65 Transcription Factor Assay kit; Active Motif, Carlsbad, Calif.). NF-κB concentration was calculated and corrected for protein concentration.

[2] = tested on: WT BMDCs; test: LPS-stimulated BMDC maturation (FACS) and cytokine production (ELISA); assay type: cell-based, mice
Procedure: (§1) BMDCs were generated as previously described (Wang et al. (2005) IMMUNOL. LETT. 98:123-130). Briefly, bone marrow was flushed from the femurs and tibias of naive mice (6 to 8-week-old WT or AMPKα1 KO mice). The red blood cells were lysed using Red Blood Cell Lysing Buffer (Sigma). Approximately 2×10^6 cells were cultured in complete medium (RPMI 1640 medium containing 10% FBS, […], 10 mM HEPES [pH 7.4], 2 mM glutamine, 100 U/ml penicillin, and […]) including 10 ng/ml GM-CSF (Pepro Tech, London, England). Fresh media was added to the cells on day 4 of culture, and nonadherent cells and loosely adherent cells were collected as immature DCs on day 7. Immature DCs were stimulated with 100 ng/ml LPS (Salmonella typhimurium; Sigma) for 24 hours to obtain mature DCs. In some experiments, AICAR was added to the culture. […] After LPS stimulation for 24 hours, supernatant of the BMDC culture was collected and IL-6, TNF-α and IL12/23 p40 concentrations were measured (R&D system).

[3] = tested on: ICAM-1; test: ICAM-1 ELISA in aqueous humor, retina and serum of EIU rats; assay type: in vivo, Lewis rats; settings: LPS + AICAR
Procedure: Male Lewis rats ranging from 6-8 weeks old (Charles River, Wilmington, Mass.) were used for these studies. To study the effects of AICAR pretreatment, AICAR and PBS (for placebo treatment) were delivered via intraperitoneal injection of AICAR (50 mg/kg or 100 mg/kg body weight; Sigma) diluted in 150 μl PBS or equal volume of PBS at 6 hours before and at the same time as LPS injection. Four experimental groups of rats were compared: (1) Normal: no treatment (2) AICAR: normal rats treated with AICAR 6 hours before examination; (3) LPS: EIU rats treated with PBS; (4) LPS+AICAR: EIU rats treated with AICAR. Two additional groups of rats were used to study the effects of AICAR (50 mg/kg) given either at the same time as LPS injection or at 6 hours after LPS injection. Under deep anesthesia, experimental rats were sacrificed and the retinas were carefully removed 24 hours after LPS injection, placed into 200 μl of lysis buffer and then sonicated. The lysate was centrifuged at 13,000 rpm for 10 minutes at 4° C. and supernatant was isolated. Three hours after LPS injection, blood samples were collected from the heart and subsequently centrifuged at 3000 rpm for 30 minutes at 4° C., and serum samples were separated. Cytokine and chemokine levels in the serum, aqueous humor, and retina were assessed using the rat CCL2/MCP-1 kit (Invitrogen, Camarillo, Calif.), the rat TNF-α kit (R&D system, Minneapolis, Minn.) and the rat ICAM-1 kit (R&D systems) by ELISA.

[4] = tested on: AMPKα1 KO BMDCs; test: LPS-stimulated AMPKα1 KO BMDC maturation and cytokine production; assay type: cell-based, mice; settings: after LPS stimulation with AICAR
Procedure: as §1, with “system). […] In these experiments, AMPKα1 KO mice were provided as previously described (Jorgensen et al. (2004) J. BIOL. CHEM. 279:1070-1079). Since BMDCs expressed only AMPKα1, BMDCs were extracted from AMPK KO mouse and used to determine the role of AMPK in the anti-inflammatory effects of AICAR. As shown in FIGS. 14A and 14B, AICAR suppressed the maturation of AMPKα1 KO BMDCs.” for “system).”

[5] = 100 ng/ml LPS 24 hours with AICAR, dose-dependent manner
[6] = LPS stimulation for 24 hours with AICAR, ELISA

NC(=O)c1ncn([C@@H]2O[C@H](CO)[C@@H](O)[C@H]2O)c1N [AICAR, 5-aminoimidazole-4-carboxamide-1-β-d-ribofuranoside]
NF-κB P65 protein level in retinal nuclear extracts [1]: 18.2±3.9 ng/mg total protein
CD40 expression on BMDCs [2, 5]: significantly suppressed
CD80 expression on BMDCs [2, 5]: significantly suppressed
CD86 expression on BMDCs [2, 5]: significantly suppressed
I-A^b expression on BMDCs [2, 5]: significantly suppressed
IL-6 production in BMDCs [2, 6]: significantly suppressed
IL-12/23 p40 production in BMDCs [2, 6]: significantly suppressed
TNF-α production in BMDCs [2, 6]: significantly suppressed
ICAM-1 in serum ([3]; 3 hours after LPS, n=11, LPS 28.7 ± 8.1): 21.6 ± 5.0 ng/mL
ICAM-1 in aqueous humor ([3]; 24 h after LPS, n=12, LPS 8.7 ± 4.4): 4.4 ± 3.3 ng/mL
ICAM-1 in retina ([3]; 24 h after LPS, n=14, LPS 316.4 ± 132.3): 202.9 ± 113.4 pg/total retinal protein
CD40 expression in AMPKα1 KO BMDCs [4]: significantly suppressed
CD80 expression in AMPKα1 KO BMDCs [4]: significantly suppressed
CD86 expression in AMPKα1 KO BMDCs [4]: significantly suppressed
I-A^b expression in AMPKα1 KO BMDCs [4]: significantly suppressed
IL12/23 p40 production in AMPKα1 KO BMDCs [4]: suppressed
IL-6 production in AMPKα1 KO BMDCs [4]: suppressed
TNF-α production in AMPKα1 KO BMDCs [4]: suppressed

— US10842806B2, “Methods for treating ocular inflammatory disorders” (Massachusetts Eye and Ear Infirmary, priority 2011, dated 2020)
